The source of these data is patent publication US11267859B2, “GM-CSF mimetics and methods of making and using same” (The Regents of the University of Colorado, a body corporate, priority 2017, dated 2022).

For assay [1], the system named is TF-1 cells. The experiment in a line: ATPlite viability assay of GM-CSF-dependent TF-1 cells grown without GM-CSF. The assay is classed as cell-based, human. To be noted: for activity as a GM-CSF mimetic/agonist: summary statement citing FIGS. 1A-1B, FIGS. 2A-2C; for GM-CSF receptor agonist activity (cell viability, ATPlite): TF-1 cells without GM-CSF, 1 nM, 10 nM or 50 nM. How it is done: FIGS. 1A-1B comprise bar graphs illustrating use of the ATPlite assay to examine the viability of the GM-CSF-dependent human erythroleukemic cell line TF-1 (Hansen, et al., 2008, Cell 134(3):496-507) treated with GM-CSF mimetics of the invention (M1, M5, or M6; 1 nM, 10, nM, or 50 nM). TF-1 cells grown in the absence of GM-CSF (control) served as a negative control, and TF-1 cells grown in the presence of GM-CSF (GM-CSF; 0.7 nM) served as a positive control. […] Error bars represent standard error of the mean. *** indicates P<0.0001, * indicates P≤0.03, compared to control.
In order to determine whether a synthetic fragment of GM-CSF or a construct comprising a combination of GM-CSF fragments linked together using PEG linkers is an agonist of the GM-CSF receptor, human cell lines dependent on GM-CSF for proliferation were employed: specifically, the human hematopoietic cell line TF-1 (Hansen, et al., 2008, Cell 134(3): 496-507) and the human cell line MOTE (Monfardini, et al., 2002, Curr Pharm Des 8(24):2185-2199) (both obtained from American Type Culture Collection, or ATCC).
In experiments with the TF-1 cell line, it was determined whether the GM-CSF mimetics of the invention were sufficient to support cell growth and viability in the absence of GM-CSF. Specifically, the cells were grown in medium without GM-CSF (control) as a negative control, in medium supplemented with GM-CSF (GM-CSF; 0.7 nM) as a positive control, or in medium supplemented with one of the GM-CSF mimetics of the invention (i.e., M1, M5, or M6; 1 nM, 10 nM, or 50 nM; FIGS. 1A-1B). Cell viability was measured using the ATPlite assay (PerkinElmer) to determine whether the GM-CSF mimetics of the invention were capable of maintaining the viability of TF-1 cells, which require GM-CSF, thus providing a measure of agonist activity.

Assay [2] has as its system transgenic mice that express the human GM-CSF receptor (hGMR mice). The experiment in a line: Blood neutrophil response in transgenic hGMR mice after subcutaneous injection for three days. The assay is classed as in vivo, mouse. To be noted: s.c.; for percentage of neutrophils at 72 h versus 0 h (paired T-test): three days, P<0.0019 for GM-CSF, P<0.0052 for M6. Here is the method: FIGS. 3A-3B comprise a plot illustrating % change in neutrophil levels in blood from transgenic hGMR mice (Nishijima, et al., 1995, Mol. Biol. Cell 6(5):497-508) treated with saline (3 days) as a negative control, with human GM-CSF (hGM-CSF, 5 μg/day×3 days) as a positive control, with the GM-CSF mimetic M1 (M1 5 μg/day×3 days), or with the GM-CSF mimetic M6 (M6, 5 μg/day×3 days) (FIG. 3A). Each connected symbol represents an individual hGMR mouse pre- and post-treatment (0 h and 72 h, respectively). Error bars represent standard error of the mean. […] To determine whether the PEG-based GM-CSF mimetics of the invention are active in vivo, the GM-CSF mimetic molecules M1 and M6 were tested in transgenic mice that express the human GM-CSF receptor and are responsive to human GM-CSF, referred to herein as hGMR mice (Nishijima, et al., 1995, Mol. Biol. Cell 6(5):497-508). The hGMR mice were tested for their responses to M1 or M6. Specifically, the study included four groups of mice: (1) hGMR mice injected subcutaneously with saline (n=4 mice) as a negative control (Saline); (2) hGMR mice injected subcutaneously with commercial human GM-CSF ([…]; n=13 mice) as a positive control, because these mice should respond to human GM-CSF; (3) hGMR mice injected subcutaneously with M1 (5 μg/animal/day; n=5 mice); and (4) hGMR mice injected subcutaneously with M6 (5 μg/animal/day; n=6 mice) for three days. Blood samples were collected before the mice received any injections of saline, human GM-CSF, M1, or M6, and blood samples were also collected after the three days of injections. The percentage of neutrophils present in the blood post-treatment was measured by counting from whole blood smears. FIG. 3A illustrates trends in the percentages of neutrophils in individual mice from each of the four groups; each connected symbol represents an individual hGMR mouse pre- and post-treatment (0 h and 72 h, respectively). FIG. 3B compares the changes in the percentage of neutrophils over the course of the treatment for each of the four groups.

Assay [3] deals with TF-1 cells. Kind of assay: Live cell counts of GM-CSF-starved TF-1 cells by flow cytometry (DAPI). The assay is classed as cell-based, human. To be noted: TF-1 starved of GM-CSF 24 h, FIG. 2A. How it is done:
FIGS. 2A-2C illustrate results of experiments wherein the GM-CSF-dependent human erythroleukemic cell line TF-1 was starved of GM-CSF for 24 h prior to treatment with media containing GM-CSF, with medium containing a GM-CSF mimetic (M1, M5 or M6; 10 nM or 100 nM), or with control medium lacking GM-CSF. The cells were fed fresh medium each day to replenish indicated concentrations (10 nM or 100 nM). Live cell counts from 3-4 replicates were plotted for each of the different conditions in FIG. 2A. […] The plots were gated by front and side scatter for singlets, then gated by DAPI, wherein DAPI-positive cells were dead and DAPI-negative cells were alive, and front scatter for live cells indicated in the selected region with the cell numbers represented below the plots.
Evaluation of ability of the GM-CSF mimetics to support cell growth was carried out by measuring cell number and cell viability by flow cytometry. The TF-1 cell line was first starved of GM-CSF for 24 h, and then plated in various conditions. […] At 72 h post-treatment, the cells were treated with DAPI (1 μg/ml) to label the nuclei of dead cells and were analyzed on a Yeti cell analyzer from Propel Labs. […] Each dot represents an individual measured cell, and increased color by “heat map” indicates a large group of cells with overlapping DAPI and forward scatter area.

Consider “DFLLVIP (SEQ ID NO: 8) [Mimetic M2, human GM-CSF peptide fragment, aa 112-118 of mature GM-CSF]”, for which the “activity as a GM-CSF mimetic/agonist” value with TF-1 cells [1] is reported as “active as a GM-CSF mimetic/agonist”.

In the case of “GM-CSF: granulocyte-macrophage colony-stimulating factor; commercial human GM-CSF used as positive control”, the “percentage of neutrophils at 72 h versus 0 h (paired T-test)” value in assay [2] was “statistically significantly higher at 72 h than at 0 h”.

In the case of “QPWEHVNAIQEAR (SEQ ID NO: 7) [Mimetic M1]”, the “GM-CSF receptor agonist activity (cell viability, ATPlite)” value in the assay with TF-1 cells [1] (24 h post-treatment (FIG. 1A)) was “GM-CSF receptor agonist activity”; in the assay on TF-1 cells [1] (48 h post-treatment (FIG. 1B)) it was “the agonist effect is also replicated”. The “activity as a GM-CSF mimetic/agonist” value in the assay with TF-1 cells [1] is reported as “active as a GM-CSF mimetic/agonist”. Moreover, in the assay on TF-1 cells [3] (10 nM or 100 nM replenished daily, 72 h post-treatment), the “live cell counts versus negative control” value is “significant increase in the cell counts over the negative control”.

For the substance “QPWEHVNAIQEAR {PEG6} DFLLVIP {PEG6} DFLLVIP {PEG6} QPWEHVNAIQEAR [Mimetic M6]”, the “GM-CSF receptor agonist activity (cell viability, ATPlite)” value in the assay on TF-1 cells [1] (24 h post-treatment (FIG. 1A)) is on record as “GM-CSF receptor agonist activity”; with TF-1 cells [1] (48 h post-treatment (FIG. 1B)), “the agonist effect is also replicated”. In addition, the “number of live cells versus control” value with TF-1 cells [3] (100 nM replenished daily, P<0.042) is recorded as “significantly lower than control”. Also, in assay [2] (5 μg/animal/day for three days, student's T-test, P<0.046, FIG. 3B), the “% change in neutrophils versus saline control group” value is listed as “statistically significantly higher than that for the saline control group”. The “percentage of neutrophils at 72 h versus 0 h (paired T-test)” value in assay [2] is on record as “statistically significantly higher at 72 h than at 0 h”.

For “QPWEHVNAIQEAR {PEG6} DFLLVIP {PEG6} QPWEHVNAIQEAR {PEG6} DFLLVIP [Mimetic M5]”, the “GM-CSF receptor agonist activity (cell viability, ATPlite)” value in the assay with TF-1 cells [1] (24 h post-treatment (FIG. 1A)) is “GM-CSF receptor agonist activity”; in the assay on TF-1 cells [1] (48 h post-treatment (FIG. 1B)) it was “the agonist effect is also replicated”.
